{
  "source": "patent EP0507256A2",
  "about": "“Tyrosine phosphorylation in protozoa” (Bristol-Myers Squibb Company, priority 1991, dated 1992)",
  "key": {"TREU 667 procyclic forms [1]": {"tested_on": "TREU 667 procyclic forms", "assay": "Anti-p-tyr immunoblot (Western) analysis of protein tyrosine phosphorylation after orthovanadate treatment", "assay_type": "cell-based, T. brucei", "parameters": "level of protein tyrosine phosphorylation of specific substrates, particularly ptp40 and ptp42: dose or concentration left out as unconfirmed", "experimental": "In the drawings: • FIGURE 1 illustrates the specificity of reactivity with anti-p-tyr antibodies. Lysate from the monomorphic trypanosome strain EATRO 164, clone IHRI 1, procyclic forms (10⁷ cells) was loaded per lane on a 10% sodium dodecyl sulfate polyacrylamide gel electrophoresis (SDS-PAGE) gel. Proteins were transferred to polyvinylidene difluoride membranes, incubated with anti-p-tyr antibodies, and followed by treatment with ¹²⁵I-protein A. Panel A: 0.25 µg ml⁻¹ anti-p-tyr antibodies. Panel B: 1 µg ml⁻¹ anti-p-tyr antibodies, plus 40 mM phenyl phosphate. Molecular weight markers are indicated. Lanes 1 and 2 differ only in the concentration of orthovanadate used during cell processing. • FIGURE 2 illustrates immunoprecipitation and phosphoamino acid analysis. Panel 2A: Western analysis of anti-p-tyr immunoprecipitates. Immunoreactive proteins were enriched by immunoprecipitation as described herein. Each lane was loaded with material corresponding to the same amount of cell lysate. Lanes: 1) total cell lysate; 2) lysate cleared of proteins reactive with anti-p-tyr; 3) eluate from anti-p-tyr immunoprecipitation. Panel 2B: Two-dimensional phosphoamino acid analysis. Procyclic forms were metabolically labelled with [³²P] orthophosphate, and proteins reactive with the anti-p-tyr antiserum were enriched by immunoprecipitation as described above. The proteins were hydrolyzed and phosphoamino acids separated by two-dimensional electrophoresis. […] Lysate of 10⁷ cells from each stage of the life cycle was loaded. TREU 667 is a pleiomorphic strain; EATRO 164 is a monomorphic strain. Independent samples produced by difluoromethylornithine (DFMO) treatment are indicated (D). PF 100% mid-log phase procyclic culture forms. SL Slender bloodforms (EATRO, 100% slender; TREU 75% slender). INT Intermediate bloodforms (approximately 20% slender, 60% intermediate, 20% late intermediate-stumpy). ST Stumpy bloodforms (>60% late intermediate-stumpy, the remainder intermediate). • FIGURE 4 illustrates the solubility analysis of immunoreactive proteins. TREU 667 procyclic form cells were lysed in buffer containing various detergents as indicated. Lanes: 1) 1% NP-40 + 0.25% deoxycholate; 2) 1% NP-40; 3) 2% SDS; 4) freeze/thaw lysis. Solubilized proteins (S), insoluble pellets (P), total lysate (T). • FIGURE 5 illustrates the effect of orthovanadate on cell growth. […] Growth of the parasites was monitored by measuring the optical density at 600 nm over ranges which were previously established to be linearly related to cell density. • FIGURE 6 illustrates the effect of orthovanadate on protein phosphorylation and tyrosine phosphorylation in TREU 667 procyclic forms. […] The cells were rinsed three times and an aliquot equivalent to 2.3 x 10⁵ cells was analyzed by SDS-PAGE and autoradiography. […]"}, "T. brucei cells": {"tested_on": "T. brucei cells", "assay": "Tyrosine phosphorylation with tyrosine kinase inhibitors in the presence of orthovanadate", "assay_type": "cell-based", "settings": "in the presence of the tyrosine phosphatase inhibitor orthovanadate", "excerpt": "Many inhibitors of mammalian tyrosine kinase have been investigated by the present inventors to determine if tyrosine phosphorylation is reduced in the tested organisms."}, "TREU 667 procyclic forms [2]": {"tested_on": "TREU 667 procyclic forms", "assay": "SDS-PAGE analysis of proteins of cells metabolically labelled with [32P]-orthophosphate", "assay_type": "cell-based, T. brucei", "settings": "1.5 µM orthovanadate, started one hour before overnight labelling (FIGURE 6C)", "experimental": "(§1) In the drawings: • FIGURE 1 illustrates the specificity of reactivity with anti-p-tyr antibodies. Lysate from the monomorphic trypanosome strain EATRO 164, clone IHRI 1, procyclic forms (10⁷ cells) was loaded per lane on a 10% sodium dodecyl sulfate polyacrylamide gel electrophoresis (SDS-PAGE) gel. Proteins were transferred to polyvinylidene difluoride membranes, incubated with anti-p-tyr antibodies, and followed by treatment with ¹²⁵I-protein A. Panel A: 0.25 µg ml⁻¹ anti-p-tyr antibodies. Panel B: 1 µg ml⁻¹ anti-p-tyr antibodies, plus 40 mM phenyl phosphate. Molecular weight markers are indicated. Lanes 1 and 2 differ only in the concentration of orthovanadate used during cell processing. • FIGURE 2 illustrates immunoprecipitation and phosphoamino acid analysis. Panel 2A: Western analysis of anti-p-tyr immunoprecipitates. Immunoreactive proteins were enriched by immunoprecipitation as described herein. […] Growth of the parasites was monitored by measuring the optical density at 600 nm over ranges which were previously established to be linearly related to cell density. • FIGURE 6 illustrates the effect of orthovanadate on protein phosphorylation and tyrosine phosphorylation in TREU 667 procyclic forms. […] The cells were rinsed three times and an aliquot equivalent to 2.3 x 10⁵ cells was analyzed by SDS-PAGE and autoradiography. […]"}, "[3]": {"tested_on": "TREU 667 procyclic form cells", "assay": "Effect of orthovanadate on cell growth (optical density at 600 nm)", "assay_type": "cell-based, T. brucei", "experimental": "as §1"}},
  "data": [
    {"compound": "C[C@@H]1C[C@@H]([C@H](O)CC2CC(=O)NC(=O)C2)C(=O)[C@@H](C)C1", "note": "[cycloheximide]", "values": [
      {"measurement": "effect of cycloheximide on increased tyrosine phosphorylation mediated by orthovanadate", "setting": "TREU 667 procyclic forms [1]", "value": "does not prevent increased tyrosine phosphorylation"}
    ]},
    {"compound": "O=c1c(-c2ccc(O)cc2)coc2cc(O)cc(O)c12", "note": "[genestin]", "values": [
      {"measurement": "tyrosine phosphorylation in T. brucei cells", "setting": "T. brucei cells", "value": "decreased tyrosine phosphorylation"}
    ]},
    {"compound": "[O]=[V]([O-])([O-])[O-]", "note": "[orthovanadate]", "values": [
      {"measurement": "pattern of 32P-labelled proteins observed after SDS-PAGE", "setting": "TREU 667 procyclic forms [2]", "value": "the same in control and treated cells"},
      {"measurement": "growth and motility of procyclic forms", "setting": "[3]; 1.5 µM orthovanadate", "value": "nonmotile but continued to divide, albeit more slowly"},
      {"measurement": "toxicity to trypanosomes", "setting": "[3]; procyclic forms, concentrations approaching those used to cause phenotypic transformation of mammalian cells (30 µM)", "value": "toxic"},
      {"measurement": "time until tyrosine phosphorylation was maximal", "setting": "TREU 667 procyclic forms [1]; 15 µM orthovanadate (FIGURE 6B)", "value": "≤ 2", "unit": "h"},
      {"measurement": "level of protein tyrosine phosphorylation of specific substrates, particularly ptp40 and ptp42", "setting": "TREU 667 procyclic forms [1]; after 6 hours in orthovanadate (FIGURE 6A)", "value": "increased dramatically"},
      {"measurement": "time until tyrosine phosphorylation returned to near control levels", "setting": "TREU 667 procyclic forms [1]; after the drug was removed (cells grown in orthovanadate, rinsed free of drug)", "value": "≤ 24", "unit": "h"}
    ]}
  ]
}
